In US20120196918A1, “PREVENTING ISLET INFLAMMATION AND DYSFUNCTION AND MAINTAINING PROPER GLUCOSE LEVELS BY CONTROLLING eIF5A AND ITS HYPUSINATION” (priority 2009, published 2012):

How the values were obtained:
[1] = system: eIF5A-Hyp binding to mRNA; assay: RNA immunoprecipitation with eIF5A antibody in cytokine-treated INS-1 cells; format: cell-based, rat; details: GC7 overnight, cytokines 4 h
Excerpt: The retention of both Nos2 transcripts and eIF5A in the nucleus upon inhibition of hypusination is consistent with a close relationship between the two molecules, such that eIF5A may serve to chaperone Nos2 transcripts from the nucleus to the cytoplasm in response to cytokine stimulation. eIF5A-Hyp binds to RNAs that contain the consensus sequence 5′-AAAUGU-3′ (47), which is present in the Nos2 mRNA. To determine if eIF5A-Hyp binds Nos2 mRNA, RNA immunoprecipitation assays using INS-1 cell total RNA were performed. […] In contrast, no co-precipitation of other NFkB target and non-target genes was observed.
RNA immunoprecipitation (RIP) assays: RIP assays from 1×10^7 formaldehyde cross-linked INS-1 cells were performed as described (75). Isotype-matched antibodies against eIF5A and the FLAG-M2 epitope (for control immunoprecipitations) were used at a final dilution of 1:100. Immunoprecipitated RNA was reversed transcribed and subjected to quantitative PCR amplification for selected genes as described above. All data represent the average of triplicate determinations from at least 3 independent RIP assays.

INS-1 cells = assay: GSCa and GSIS of INS-1 cells exposed to cytokines; format: cell-based, rat; details: preincubation with 125 μM GC7, cytokines 4 h
Description: GSCa and GSIS studies were carried out to assess INS-1 cell function in the presence of cytokines and GC7. […] This asynchronous pattern may be related to the dispersed nature of insulinoma cells compared to f3 cells in an intact islet.
Cytokine and inhibitor incubation studies: For cytokine incubation assays, a 1000× cocktail of cytokines containing 5 μg/ml IL1β, 10 μg/ml TNFα, and 100 μg/ml IFNγ (all prepared in 0.1% BSA in Tris-buffered saline) was applied at 1× final concentration to groups of 50 islets or 1×10^6 INS-1 (832/13) cells for a total of 4 h at 37° C. For GC7 incubation studies, GC7 was prepared at a stock concentration of 125 mM in 10 mM acetic acid and applied to cultures of 50 islets or 1×10^6 INS-1 cells to obtain the final concentrations indicted in the figures. Where needed, GC7 was protected from amine oxidases in serum by addition of 1 mM aminoguanidine (Sigma). Cells were incubated with GC7 overnight (˜16 h) at 37° C. prior to analysis. […]
GSCa imaging assays: Intracellular Ca^2+ ((Ca2+)i) was measured using the ratiometric Ca^2+ indicator fura-2 AM using a modification of previously published methods (79). The glucose-stimulated (Ca2+)i response (GSCa) was defined as the difference between ratio measurements (340/380 nm fluorescence) in 11 mM vs. 3 mM glucose. Data were analyzed with IP Lab's software version 4.0 (Scanalytics). […]

iNOS = assay: Cytokine-induced iNOS protein in islets from siRNA-injected mice (immunoblot); format: cell-based, mouse; details: cytokines 4 h
Description: Because nitric oxide is known to be a primary effector of islet dysfunction in response to cytokine-induced stress, the transcription of the gene encoding iNOS (Nos2) was also examined.
Cytokine and inhibitor incubation studies: For cytokine incubation assays, a 1000× cocktail of cytokines containing 5 μg/ml IL1β, 10 μg/ml TNFα, and 100 μg/ml IFNγ (all prepared in 0.1% BSA in Tris-buffered saline) was applied at 1× final concentration to groups of 50 islets or 1×10^6 INS-1 (832/13) cells for a total of 4 h at 37° C. […]
(§1) Immunoblot and nitrite and iNOS assays: Whole cell extracts were resolved by electrophoresis on a 4-20% SDS-polyacrylamide gel, followed by immunoblot using anti-eIF5A1, anti-eIF5A2, anti-iNOS, anti-GFP, or anti-actin primary antibodies and fluorophore-labeled secondary antibodies. Immunoblots were visualized using the Li-Cor® Odyssey® system (Li-Cor Biosciences) and quantitated by scanning fluorometry using Odyssey Imaging v. […] Nitrite was quantitated by measuring nitric oxide-derived nitrite from INS-1 cell culture medium using the Griess reagent (Promega) according to the manufacturer's recommendations. iNOS activity was measured using a commercially available kit (Cayman).

eIF5A = eIF5A and eIF5A-Hyp levels in islets isolated from siRNA-injected mice (immunoblot, 3H-spermidine); format: in vivo, mouse; details: si-eIF5A i.p. for three days
Description: To clarify this, islets were isolated from siRNA-injected mice and their function assessed in vitro. […] In order to further characterize this improvement in islet glucose responsiveness, glucose-stimulated Ca2+ mobilization (GSCa) studies were also performed. GSCa is a measure of islet glucose sensitivity that captures the dynamics of the islet glucose response, which is similar to GSIS (31). The GSCa, as measured by the change in fura-2 AM fluorescence ratio after glucose stimulation, was increased in si-eIF5A-treated islets compared to controls, reflecting the functional improvement seen in GSIS (FIG. 3D). This improved GSCa relative to controls persisted 48 and 72 hours post-isolation (data not shown). […]
as §1, with “(Cayman). […]” for “(Cayman).”

Molecule	co-precipitation of mRNA with eIF5A antibody [1]	GSCa and GSIS after cytokines (INS-1 cells)	induction of iNOS protein in islets (iNOS)	reduction of eIF5A in islets (eIF5A)
NCCCCCCCN=C(N)N [GC7]	no co-precipitation of any mRNA species	reverses the suppressive effect of cytokines on GSCa and GSIS almost completely	–	–
5′-AACGGAAUGACUUCCAGCUGA-3′ (siSTABLE modification, further chemistry not given here) [si-eIF5A]	–	–	significantly attenuated	~50%
